Literature values, collected in patent US20250127863A1, “ANTIMICROBIAL PEPTIDE FOR ONYCHOMYCOSIS” (CBMR SCIENTIFIC NANOSCIENCE B.V., priority 2019, published 2025).

Key:
onychomycosis [1] = conditions: topical, specialist setting; after 48 weeks of treatment; cited from earlier work
onychomycosis [2] = conditions: systemic use; cited from earlier work

Compound | cure rates (onychomycosis [1]) | (mycological) cure (onychomycosis [2]) [%]
C=C1CCN([C@H](C)[C@](O)(Cn2cncn2)c2ccc(F)cc2F)CC1 [efinaconazole] | 15.2-17.8% | –
CN(C/C=C/C#CC(C)(C)C)Cc1cccc2ccccc12 [terbinafine] | – | 70.9
Clc1ccc(C(Cn2ccnc2)OCc2ccsc2Cl)c(Cl)c1 (stereo not drawn) [tioconazole] | 22% | –
